Source: ChEMBL document CHEMBL2390842, “Development of indole/indazole-aminopyrimidines as inhibitors of c-Jun N-terminal kinase (JNK): optimization for JNK potency and physicochemical properties” (Bioorg Med Chem Lett, 2013)
Converted amounts (≈) assume the structure as drawn. One block for each compound: values may come before it.

Assays:
[1] = molecular target: c-Jun N-terminal kinase, JNK (Homo sapiens, UniProt P45983+P53779+P45984); assay: Inhibition of JNK-mediated c-Jun activation in TNFalpha-induced human SW1353 cells preincubated for 30 mins prior to TNFalpha treatment measured after 20 mins; format: cell-based
[2] = molecular target: Mitogen-activated protein kinase 8 (Homo sapiens, UniProt P45983); assay: Inhibition of human JNK1alpha1 using GST-tagged ATF2 as substrate preincubated for 10 mins prior to substrate addition measured after 30 mins by microplate scintillation counting analysis
[3] = Permeability from apical to basolateral side in human Caco2 cells; format: ADME, cell-based; settings: Caco-2
[4] = Solubility of the compound in phosphate buffer at pH 6.4; format: physicochemical
Caco-2 = assay: Efflux ratio of permeability from […] side in human Caco2 cells; format: ADME, cell-based
[5] = Clearance in rat at 0.5 mg/kg, iv; format: ADME, organism-based; parameters: dose 0.5 mg/kg, route intravenous; settings: in vivo
[6] = Half life in dog at 0.5 mg/kg, iv; format: ADME, organism-based, Canis lupus familiaris; parameters: dose 0.5 mg/kg, route intravenous; settings: in vivo
[7] = molecular target: Mitogen-activated protein kinase 9 (Homo sapiens, UniProt P45984); assay: Inhibition of human JNK2alpha2 using GST-tagged ATF2 as substrate preincubated for 10 mins prior to substrate addition measured after 30 mins by microplate scintillation counting analysis
[8] = Oral bioavailability in rat at 2 mg/kg; format: ADME, organism-based; settings: in vivo
[9] = Half life in rat at 2 mg/kg, po; format: ADME, organism-based; parameters: dose 2 mg/kg, route oral; settings: in vivo
[10] = Half life in dog at 2 mg/kg, po; format: ADME, organism-based, Canis lupus familiaris; parameters: dose 2 mg/kg, route oral; settings: in vivo
[11] = Oral bioavailability in dog at 2 mg/kg; format: ADME, organism-based, Canis lupus familiaris; settings: in vivo
[12] = Half life in rat at 0.5 mg/kg, iv; format: ADME, organism-based; parameters: dose 0.5 mg/kg, route intravenous; settings: in vivo
[13] = Clearance in dog at 0.5 mg/kg, iv; format: ADME, organism-based, Canis lupus familiaris; parameters: dose 0.5 mg/kg, route intravenous; settings: in vivo

Chain of Mitogen-activated protein kinase 8 (P45983 whole entry): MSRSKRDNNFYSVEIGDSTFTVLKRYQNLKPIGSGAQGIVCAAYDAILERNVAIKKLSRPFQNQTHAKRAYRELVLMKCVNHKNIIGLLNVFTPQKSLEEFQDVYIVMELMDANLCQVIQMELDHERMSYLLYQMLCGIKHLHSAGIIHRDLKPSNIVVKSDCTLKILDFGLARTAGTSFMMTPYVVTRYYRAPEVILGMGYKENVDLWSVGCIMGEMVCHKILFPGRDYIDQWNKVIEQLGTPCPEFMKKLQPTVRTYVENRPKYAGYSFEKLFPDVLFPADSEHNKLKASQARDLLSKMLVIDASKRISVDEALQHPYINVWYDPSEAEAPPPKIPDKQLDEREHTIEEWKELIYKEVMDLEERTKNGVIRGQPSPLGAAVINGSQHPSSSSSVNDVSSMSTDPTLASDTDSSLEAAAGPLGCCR
Chain of Mitogen-activated protein kinase 9 (P45984 whole entry): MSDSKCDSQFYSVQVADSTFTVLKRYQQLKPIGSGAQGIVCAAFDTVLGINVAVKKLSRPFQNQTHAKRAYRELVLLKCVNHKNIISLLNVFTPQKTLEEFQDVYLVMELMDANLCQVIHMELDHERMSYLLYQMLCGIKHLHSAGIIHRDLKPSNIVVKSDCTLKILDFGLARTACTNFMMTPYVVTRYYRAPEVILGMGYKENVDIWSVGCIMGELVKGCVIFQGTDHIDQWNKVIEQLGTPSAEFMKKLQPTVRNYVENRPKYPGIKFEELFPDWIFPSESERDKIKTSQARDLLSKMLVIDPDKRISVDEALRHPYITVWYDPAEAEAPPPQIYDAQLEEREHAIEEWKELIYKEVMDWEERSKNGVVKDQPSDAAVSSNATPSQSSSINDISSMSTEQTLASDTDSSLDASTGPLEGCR

IC50 [1]: 0.71 µM
SMILES: CS(=O)(=O)N[C@H]1CC[C@H](Nc2nccc(-n3ccc4c(N5CCC(S(C)(=O)=O)CC5)cccc43)n2)CC1

IC50 [1]: 0.2 µM
IC50 [2]: 5 nM
SMILES: CS(=O)(=O)N[C@H]1CC[C@H](Nc2nccc(-n3ccc4c(N5CCN(C(=O)CC#N)CC5)cccc43)n2)CC1

IC50 [1]: 0.29 µM
Papp A→B [3]: 3.8 ×10⁻⁶ cm/s
solubility [4]: 3.5 µg/mL (≈ 7.44 µM)
IC50 [2]: 6 nM
Ratio (Caco-2): 5
SMILES: CS(=O)(=O)C1CCN(c2cccc3c2cnn3-c2ccnc(N[C@H]3CC[C@H](O)CC3)n2)CC1

clearance [5]: 47 mL/min/kg
half-life [6]: 270 min
IC50 [7]: 20 nM
bioavailability [8]: 100%
Papp A→B [3]: 10.5 ×10⁻⁶ cm/s
half-life [9]: 120 min
half-life [10]: 204 min
bioavailability [11]: 15%
solubility [4]: 5.2 µg/mL (≈ 11.1 µM)
half-life [12]: 42 min
clearance [13]: 10.6 mL/min/kg
SMILES: CS(=O)(=O)C1CCN(c2cccc3c2ccn3-c2ccnc(N[C@H]3CC[C@H](O)CC3)n2)CC1

IC50 [1]: 0.7 µM
IC50 [2]: 7 nM
SMILES: CC(=O)N[C@H]1CC[C@H](Nc2nccc(-n3ccc4c(N5CCC(S(C)(=O)=O)CC5)cccc43)n2)CC1

Papp A→B [3]: 0.4 ×10⁻⁶ cm/s
SMILES: CS(=O)(=O)C1CCN(c2cccc3c2ccn3-c2ccnc(N[C@H]3CC[C@H](C(=O)N4CCC(O)CC4)CC3)n2)CC1

Papp A→B [3]: 0.1 ×10⁻⁶ cm/s
SMILES: CS(=O)(=O)C1CCN(c2cccc3c2ccn3-c2ccnc(N[C@H]3CC[C@H](C(=O)N4CCn5cnnc5C4)CC3)n2)CC1
